Assays:
Mus musculus [1] = assay: AUC (0 to 5 hrs) in BALB/c mouse at 20 mg/kg; format: ADME, organism-based, Plasma; set-up: time < 4 hr, dose 20 mg/kg; conditions: in vivo, 4 h
Mus musculus [2] = assay: Dose normalised AUC (0 to 5 hrs) in BALB/c mouse at 20 mg/kg, po; format: ADME, organism-based; set-up: time < 4 hr, dose 20 mg/kg, route oral; conditions: in vivo, 4 h
[3] = Selectivity index, TC50 for human Hep2 cells to EC50 for chloroquine-sensitive Plasmodium falciparum 3D7; format: toxicity, cell-based, HEp-2; conditions: read-out: Selectivity Index
[4] = Cytotoxicity against CHO cells; format: cell-based, Cricetulus griseus; conditions: chinese hamster, read-out: TC50 (the source's name)
[5] = Selectivity index, TC50 for CHO cells to EC50 for chloroquine-sensitive Plasmodium falciparum 3D7; format: toxicity, cell-based; conditions: hamster, read-out: Selectivity Index
[6] = Cytotoxicity against human HeLa cells; format: cell-based; conditions: read-out: TC50 (the source's name)
[7] = Selectivity index, TC50 for human HeLa cells to EC50 for chloroquine-sensitive Plasmodium falciparum 3D7; format: toxicity, cell-based; conditions: read-out: Selectivity Index
[8] = Cytotoxicity against mouse BAF3 cells; format: cell-based; conditions: read-out: TC50 (the source's name)
[9] = Selectivity index, TC50 for human HuH7 cells to EC50 for chloroquine-sensitive Plasmodium falciparum 3D7; format: toxicity, cell-based, Huh-7; conditions: read-out: Selectivity Index
[10] = Selectivity index, TC50 for mice (Mus musculus) BAF3 cells to EC50 for chloroquine-sensitive Plasmodium falciparum 3D7; format: toxicity, cell-based; conditions: read-out: Selectivity Index
[11] = Cytotoxicity against human Hep2 cells; format: cell-based, HEp-2; conditions: read-out: TC50 (the source's name)
[12] = Cytotoxicity against human HuH7 cells; format: cell-based, Huh-7; conditions: read-out: TC50 (the source's name)
[13] = Cytotoxicity against human 293T cells; format: cell-based, HEK-293T; conditions: read-out: TC50 (the source's name)

Compound | AUC (Mus musculus [1]) | AUC (Mus musculus [2]) | also measured
O=C(Nc1cccc(C(F)(F)F)c1)c1cc(N2CCc3ccccc3C2)cc(C(F)(F)F)c1 | 1.67 µM·h | 2.33 µg·min/mL | –
O=C(Nc1cc(N2CCC(N3CCCC3)CC2)cc(C(F)(F)F)c1)c1cccc(C(F)(F)F)c1 | 4.77 µM·h | 6.94 µg·min/mL | –
CC1CCN(C2CCN(c3cc(C(=O)Nc4cccc(Cl)c4)cc(C(F)(F)F)c3)CC2)CC1 | 7.93 µM·h | 11.42 µg·min/mL | selectivity ratio [3]: > 20; CC50 [4]: > 8 µM; selectivity ratio [5]: > 20; CC50 [6]: > 8 µM; selectivity ratio [7]: > 20; CC50 [8]: > 8 µM; selectivity ratio [9]: > 20; selectivity ratio [10]: > 20; CC50 [11]: > 8 µM; CC50 [12]: > 8 µM; CC50 [13]: > 8 µM

Now from value to compound, other results behind:

AUC (Mus musculus [1]) | AUC (Mus musculus [2]) | Compound | also measured
4.37 µM·h | 6.1 µg·min/mL | O=C(Nc1cccc(Cl)c1)c1cc(N2CCC(N3CCCCC3)CC2)cc(C(F)(F)F)c1 | –
3.92 µM·h | 5.31 µg·min/mL | O=C(Nc1cccc(Cl)c1)c1cc(N2CCC(N3CCCC3)CC2)cc(C(F)(F)F)c1 | –
4.81 µM·h | 7.01 µg·min/mL | O=C(Nc1cc(Cl)cc(Cl)c1)c1cc(N2CCC(N3CCCC3)CC2)cc(C(F)(F)F)c1 | –
